Reference: publication doi:10.1101/2021.04.08.439011v1 (biorxiv, 2021)

How the values were obtained:
Conditions in all cases: 0.1 µM; binder
BRSK1 = BRSK1 (Homo sapiens, UniProt Q8TDC3)
PCTK2 = PCTK2 (Homo sapiens, UniProt Q00537)
SGK3 = SGK3 (Homo sapiens, UniProt Q96BR1)
PHKG1 = PHKG1 (Homo sapiens, UniProt Q16816)
MAST1 = MAST1 (Homo sapiens, UniProt Q9Y2H9)
FRK = FRK (Homo sapiens, UniProt P42685)
MAPKAPK5 = MAPKAPK5 (Homo sapiens, UniProt Q8IW41)
KIT(L576P) = KIT(L576P) (Homo sapiens, UniProt P10721, L576P)
KIT(L576P), sequence (P10721 whole entry L576P): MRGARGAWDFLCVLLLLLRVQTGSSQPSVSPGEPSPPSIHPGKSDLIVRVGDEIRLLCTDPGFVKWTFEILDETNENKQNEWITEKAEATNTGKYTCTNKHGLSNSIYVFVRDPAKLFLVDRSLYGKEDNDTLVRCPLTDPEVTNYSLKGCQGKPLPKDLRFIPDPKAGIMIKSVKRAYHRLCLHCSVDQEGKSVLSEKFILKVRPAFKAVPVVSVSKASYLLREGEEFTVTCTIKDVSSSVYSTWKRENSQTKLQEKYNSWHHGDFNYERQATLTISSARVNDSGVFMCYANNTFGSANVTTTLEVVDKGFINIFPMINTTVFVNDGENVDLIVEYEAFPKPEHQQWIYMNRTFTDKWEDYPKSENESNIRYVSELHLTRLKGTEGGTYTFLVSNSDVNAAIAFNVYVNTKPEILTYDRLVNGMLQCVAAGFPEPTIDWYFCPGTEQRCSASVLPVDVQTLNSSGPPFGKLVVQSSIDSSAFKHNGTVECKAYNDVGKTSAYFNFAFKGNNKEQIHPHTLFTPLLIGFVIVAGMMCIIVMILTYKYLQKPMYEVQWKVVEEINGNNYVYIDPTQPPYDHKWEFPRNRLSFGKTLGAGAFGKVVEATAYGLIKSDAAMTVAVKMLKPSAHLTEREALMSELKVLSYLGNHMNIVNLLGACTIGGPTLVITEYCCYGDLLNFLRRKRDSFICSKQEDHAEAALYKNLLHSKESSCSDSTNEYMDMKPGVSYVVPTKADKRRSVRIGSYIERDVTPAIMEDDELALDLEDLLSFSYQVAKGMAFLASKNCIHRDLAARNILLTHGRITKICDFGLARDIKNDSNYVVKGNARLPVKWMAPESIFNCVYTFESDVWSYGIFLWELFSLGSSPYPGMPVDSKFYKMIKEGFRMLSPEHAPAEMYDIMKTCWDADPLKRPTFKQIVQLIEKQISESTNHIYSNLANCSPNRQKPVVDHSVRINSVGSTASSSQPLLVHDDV

CAMK2A = CAMK2A (Homo sapiens, UniProt Q9UQM7)
CAMK2A, sequence (Q9UQM7 whole entry): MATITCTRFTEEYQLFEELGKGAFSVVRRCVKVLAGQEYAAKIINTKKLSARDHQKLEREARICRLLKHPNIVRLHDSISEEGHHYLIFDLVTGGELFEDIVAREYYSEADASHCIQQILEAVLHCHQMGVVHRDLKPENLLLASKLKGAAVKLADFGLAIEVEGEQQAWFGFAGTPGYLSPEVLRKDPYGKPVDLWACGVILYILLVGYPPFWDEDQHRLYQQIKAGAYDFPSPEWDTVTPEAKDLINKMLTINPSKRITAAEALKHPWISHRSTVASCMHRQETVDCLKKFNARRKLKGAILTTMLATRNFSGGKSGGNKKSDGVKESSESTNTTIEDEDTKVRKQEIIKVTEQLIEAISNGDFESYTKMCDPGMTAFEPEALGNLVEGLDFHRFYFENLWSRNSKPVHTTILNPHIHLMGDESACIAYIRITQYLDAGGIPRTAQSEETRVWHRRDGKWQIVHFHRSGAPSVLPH

NEK7 = NEK7 (Homo sapiens, UniProt Q8TDX7)
NEK7, sequence (Q8TDX7 whole entry): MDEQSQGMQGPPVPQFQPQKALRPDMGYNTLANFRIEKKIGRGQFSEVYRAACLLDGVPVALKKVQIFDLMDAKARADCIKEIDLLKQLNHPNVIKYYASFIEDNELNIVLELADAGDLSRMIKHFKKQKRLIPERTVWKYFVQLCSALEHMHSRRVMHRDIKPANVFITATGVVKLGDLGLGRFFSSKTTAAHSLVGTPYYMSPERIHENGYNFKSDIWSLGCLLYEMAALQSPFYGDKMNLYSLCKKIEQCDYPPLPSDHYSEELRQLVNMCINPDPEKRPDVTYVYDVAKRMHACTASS

S6K1 = S6K1 (Homo sapiens, UniProt P23443)
S6K1, sequence (P23443 whole entry): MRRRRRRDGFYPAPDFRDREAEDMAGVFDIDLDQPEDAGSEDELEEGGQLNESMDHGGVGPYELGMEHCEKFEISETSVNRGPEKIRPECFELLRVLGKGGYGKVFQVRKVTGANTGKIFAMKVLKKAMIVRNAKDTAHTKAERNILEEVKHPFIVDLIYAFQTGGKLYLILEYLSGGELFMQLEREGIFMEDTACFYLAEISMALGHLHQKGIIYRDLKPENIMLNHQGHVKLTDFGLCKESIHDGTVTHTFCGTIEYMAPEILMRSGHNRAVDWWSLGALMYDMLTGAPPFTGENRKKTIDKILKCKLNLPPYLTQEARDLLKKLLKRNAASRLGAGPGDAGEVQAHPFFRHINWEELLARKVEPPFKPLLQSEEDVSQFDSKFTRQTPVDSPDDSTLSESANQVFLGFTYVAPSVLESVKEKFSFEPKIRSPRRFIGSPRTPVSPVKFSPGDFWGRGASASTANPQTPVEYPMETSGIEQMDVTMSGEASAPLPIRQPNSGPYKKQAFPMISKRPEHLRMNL

EGFR(G719C) = EGFR(G719C) (Homo sapiens, UniProt P00533, G719C)
CDK5 = CDK5 (Homo sapiens, UniProt Q00535)
NIM1 = NIM1 (Homo sapiens, UniProt Q8IY84)
ROCK1 = ROCK1 (Homo sapiens, UniProt Q13464)
CDC2L1 = CDC2L1 (Homo sapiens, UniProt P21127)
ASK2 = ASK2 (Homo sapiens, UniProt O95382)
WNK4 = WNK4 (Homo sapiens, UniProt Q96J92)
WNK4, sequence (Q96J92 whole entry): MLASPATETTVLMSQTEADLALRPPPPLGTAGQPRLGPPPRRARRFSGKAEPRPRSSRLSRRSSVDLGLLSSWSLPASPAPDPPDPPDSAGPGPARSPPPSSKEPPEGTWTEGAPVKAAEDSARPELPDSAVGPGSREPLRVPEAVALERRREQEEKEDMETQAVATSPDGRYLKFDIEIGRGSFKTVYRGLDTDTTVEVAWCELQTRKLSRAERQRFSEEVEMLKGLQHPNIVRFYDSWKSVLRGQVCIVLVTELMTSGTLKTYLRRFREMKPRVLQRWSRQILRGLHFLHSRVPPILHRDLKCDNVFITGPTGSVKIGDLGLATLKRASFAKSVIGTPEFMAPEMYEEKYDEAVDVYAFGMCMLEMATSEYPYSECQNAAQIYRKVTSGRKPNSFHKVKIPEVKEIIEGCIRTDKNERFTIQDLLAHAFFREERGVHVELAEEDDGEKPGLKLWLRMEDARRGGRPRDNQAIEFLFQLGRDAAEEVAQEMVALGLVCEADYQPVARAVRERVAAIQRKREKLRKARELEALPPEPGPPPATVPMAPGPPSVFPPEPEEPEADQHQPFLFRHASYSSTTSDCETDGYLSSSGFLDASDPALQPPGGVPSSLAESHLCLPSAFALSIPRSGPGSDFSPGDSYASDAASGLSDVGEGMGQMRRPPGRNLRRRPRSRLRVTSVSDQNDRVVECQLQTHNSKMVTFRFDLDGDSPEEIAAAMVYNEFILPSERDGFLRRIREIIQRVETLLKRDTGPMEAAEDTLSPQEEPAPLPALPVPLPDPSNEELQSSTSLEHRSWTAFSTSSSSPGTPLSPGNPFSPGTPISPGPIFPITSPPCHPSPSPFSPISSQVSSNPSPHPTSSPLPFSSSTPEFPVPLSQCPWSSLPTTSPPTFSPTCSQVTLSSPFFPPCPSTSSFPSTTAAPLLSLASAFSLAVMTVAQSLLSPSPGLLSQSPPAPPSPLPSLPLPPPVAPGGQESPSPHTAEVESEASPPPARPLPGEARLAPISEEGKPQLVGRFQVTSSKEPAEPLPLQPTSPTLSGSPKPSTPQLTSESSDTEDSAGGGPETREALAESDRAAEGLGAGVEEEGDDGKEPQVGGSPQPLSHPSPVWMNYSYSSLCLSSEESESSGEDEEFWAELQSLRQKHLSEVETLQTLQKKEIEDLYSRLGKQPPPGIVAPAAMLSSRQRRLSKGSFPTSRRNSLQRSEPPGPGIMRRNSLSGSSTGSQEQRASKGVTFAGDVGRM

EGFR(L861Q) = EGFR(L861Q) (Homo sapiens, UniProt P00533, L861Q)
MEK1 = MEK1 (Homo sapiens, UniProt Q02750)
p38-gamma = p38-gamma (Homo sapiens, UniProt P53778)
BIKE = BIKE (Homo sapiens, UniProt Q9NSY1)
CDK7 = CDK7 (Homo sapiens, UniProt P50613)
FLT3(D835V) = FLT3(D835V) (Homo sapiens, UniProt P36888, D835V)
YANK3 = YANK3 (Homo sapiens, UniProt Q86UX6)
YES = YES (Homo sapiens, UniProt P07947)
YES, sequence (P07947 whole entry): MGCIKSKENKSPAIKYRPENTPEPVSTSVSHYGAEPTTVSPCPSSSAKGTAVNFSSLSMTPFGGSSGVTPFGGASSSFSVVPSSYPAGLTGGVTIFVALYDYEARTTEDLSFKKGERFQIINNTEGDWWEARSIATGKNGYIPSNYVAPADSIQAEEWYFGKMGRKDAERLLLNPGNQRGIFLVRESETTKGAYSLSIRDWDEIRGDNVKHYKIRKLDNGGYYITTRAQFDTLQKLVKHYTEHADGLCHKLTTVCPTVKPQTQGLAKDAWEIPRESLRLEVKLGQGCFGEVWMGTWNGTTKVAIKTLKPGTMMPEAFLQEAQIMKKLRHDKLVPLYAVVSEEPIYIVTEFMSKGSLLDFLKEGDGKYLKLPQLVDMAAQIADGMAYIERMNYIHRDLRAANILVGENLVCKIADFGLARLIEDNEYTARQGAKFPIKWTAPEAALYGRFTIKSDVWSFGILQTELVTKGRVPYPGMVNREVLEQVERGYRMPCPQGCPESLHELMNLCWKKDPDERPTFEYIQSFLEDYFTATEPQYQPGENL

MET = MET (Homo sapiens, UniProt P08581)
MINK = MINK (Homo sapiens, UniProt Q8N4C8)
CHEK2 = CHEK2 (Homo sapiens, UniProt O96017)
CAMK4 = CAMK4 (Homo sapiens, UniProt Q16566)
CAMK4, sequence (Q16566 whole entry): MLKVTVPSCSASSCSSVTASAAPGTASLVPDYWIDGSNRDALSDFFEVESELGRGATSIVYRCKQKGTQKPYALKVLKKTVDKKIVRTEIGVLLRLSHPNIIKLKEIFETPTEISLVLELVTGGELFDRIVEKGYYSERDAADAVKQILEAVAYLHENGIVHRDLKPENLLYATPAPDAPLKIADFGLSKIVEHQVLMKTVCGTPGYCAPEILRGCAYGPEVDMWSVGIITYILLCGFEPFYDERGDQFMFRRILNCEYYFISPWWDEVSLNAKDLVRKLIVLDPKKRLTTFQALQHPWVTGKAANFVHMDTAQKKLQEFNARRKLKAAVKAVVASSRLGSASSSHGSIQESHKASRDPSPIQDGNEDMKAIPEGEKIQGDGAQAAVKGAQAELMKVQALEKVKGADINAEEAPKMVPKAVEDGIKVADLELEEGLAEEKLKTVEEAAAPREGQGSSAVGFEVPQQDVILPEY

PRKR = PRKR (Homo sapiens, UniProt P19525)

SGK3, sequence (Q96BR1 whole entry): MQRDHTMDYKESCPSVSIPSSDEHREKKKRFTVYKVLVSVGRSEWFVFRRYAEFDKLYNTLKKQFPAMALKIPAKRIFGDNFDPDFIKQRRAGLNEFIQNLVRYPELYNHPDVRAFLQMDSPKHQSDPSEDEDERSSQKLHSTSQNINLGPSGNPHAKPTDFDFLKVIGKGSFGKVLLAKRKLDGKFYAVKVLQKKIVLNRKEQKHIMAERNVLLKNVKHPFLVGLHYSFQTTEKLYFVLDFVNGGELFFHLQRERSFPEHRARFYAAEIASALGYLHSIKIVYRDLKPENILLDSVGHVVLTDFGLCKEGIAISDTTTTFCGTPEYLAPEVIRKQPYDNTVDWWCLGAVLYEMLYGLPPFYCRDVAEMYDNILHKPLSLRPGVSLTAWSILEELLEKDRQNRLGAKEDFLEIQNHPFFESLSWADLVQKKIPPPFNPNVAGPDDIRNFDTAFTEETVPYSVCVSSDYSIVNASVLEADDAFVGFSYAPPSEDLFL

CNc1ncc2cc(-c3ccc(-c4cccc(C)n4)cc3Cl)c(=O)n(C[C@H]3OC[C@H](N)CO3)c2n1 [compound 6, G-5555]
Percent Control (BRSK1): 100%
Percent Control (PCTK2): 100%
Percent Control (SGK3): 93%
Percent Control (PHKG1): 100%
Percent Control (MAST1): 47%
Percent Control (FRK): 100%
Percent Control (MAPKAPK5): 100%
Percent Control (KIT(L576P)): 100%
Percent Control (CAMK2A): 79%
Percent Control (NEK7): 100%
Percent Control (S6K1): 92%
Percent Control (EGFR(G719C)): 100%
Percent Control (CDK5): 100%
Percent Control (NIM1): 89%
Percent Control (ROCK1): 83%
Percent Control (CDC2L1): 100%
Percent Control (ASK2): 100%
Percent Control (WNK4): 96%
Percent Control (EGFR(L861Q)): 100%
Percent Control (MEK1): 24%
Percent Control (p38-gamma): 100%
Percent Control (BIKE): 100%
Percent Control (CDK7): 100%
Percent Control (FLT3(D835V)): 85%
Percent Control (YANK3): 99%
Percent Control (YES): 100%
Percent Control (MET): 89%
Percent Control (MINK): 77%
Percent Control (CHEK2): 100%
Percent Control (CAMK4): 100%
Percent Control (PRKR): 100%
